In patent publication US12364696B2, “Treatment of autoimmune disease” (priority 2019, dated 2025):
Values joined by “and” are separate entries in the source; they are usually repeats but may differ in a detail not shown here. Identical values can stand only once. “Also recorded” adds a separate entry of the source.

What was measured:
[1] = system: patients with chronic, refractory, moderate to severe alopecia areata; experiment: Retrospective clinical study of orally administered and sublingual tofacitinib, 7-point assessment scale of hair regrowth; assay type: in vivo, human; conditions: for Increase in hair growth of >+1, % of patients / Increase in hair growth of >+1, number of patients / Mean score on 7-point assessment scale / Patients who achieved +3 (complete response, CR) / Median score on 7-point assessment scale: all patients
[2] = system: folliculitis decalvans and tufted folliculitis; experiment: Additional case studies (data not shown); assay type: in vivo, human; conditions: sublingual
[3] = dose range 1-20 mg, oral or sublingual
[4] = of 71 patients on immunosuppressive co-therapy at start
[5] = oral or sublingual, n = 127, listed as Tofacitinib
[6] = orally administered, 3 months, n = 39, mean dose 4.19 mg
[7] = orally administered, 6 months, n = 36, mean dose 4.96 mg
[8] = orally administered, 9 months, n = 25, mean dose 5.58 mg
[9] = orally administered, 12 months, n = 21, mean dose 5.63 mg
[10] = orally administered, 15 months, n = 16, mean dose 6.90 mg
[11] = orally administered, 18 months, n = 7, mean dose 6.07 mg
[12] = prolonged disease duration >10 years, n = 38
[13] = sublingual, 3 months, n = 88, mean dose 3.73 mg
[14] = sublingual, 6 months, n = 74, mean dose 4.48 mg
[15] = sublingual, 9 months, n = 53, mean dose 4.71 mg
[16] = sublingual, 12 months, n = 34, mean dose 6.25 mg
[17] = sublingual, 15 months, n = 15, mean dose 6.81 mg
[18] = sublingual, 18 months, n = 3, mean dose 5.00 mg
[19] = tofacitinib monotherapy, n = 56

In the case of `C[C@@H]1CCN(C(=O)CC#N)C[C@@H]1N(C)c1ncnc2[nH]ccc12` [tofacitinib], the “Late responders with CR” value ([1]; 31 late responders, 6 months) is reported as 2, the “Late responders with a score of 0” value ([1]; 31 late responders, 6 months) is reported as 8 and the “Late responders with a score of >+1” value ([1]; 31 late responders, 6 months) is reported as 17. For the same molecule, the “Late responders in CR” value ([1]; 31 late responders, 9 months) was 4, the “Late responders with a score of >+1” value ([1]; 31 late responders, 9 months) was 20 and the “Late responders who had achieved CR” value ([1]; 31 late responders, by 15 months) was 10. The “Overall effect on hair loss and regrowth” value [1, 3] was “arrested hair loss and stimulated regrowth in the overwhelming majority of patients; also recorded: highly effective”, the Tolerability [1, 3] was “well tolerated” and the “Patients who developed asymptomatic hepatic transaminitis leading to treatment discontinuation” value ([1]; later diagnosed with nonalcoholic steatohepatitis) was “One”. For the same molecule, the “Patients who discontinued all other immunosuppressive treatment after starting tofacitinib, %” value [1, 4] was 46%, the “Patients who discontinued all other immunosuppressive treatment after starting tofacitinib, number” value [1, 4] was “Thirty-three” and the “Early responders who achieved a +2” value ([1]; of the 67 early responders) was 40%. For the same molecule, the “Early responders who achieved a +3” value ([1]; of the 67 early responders) was 22%, the “Patients who have remained in CR for >12 months” value ([1]; oral or sublingual) was “nine” and the “Patients who remain in CR after six months of continued treatment” value ([1]; oral or sublingual) was “Twenty-four”. The Side effects ([1]; oral or sublingual) was “infrequent and mild”, the “Increase in hair growth of >+1, % of patients” value (“Increase … % of patients” for short) ([1]; oral or sublingual, 3 months) was 56% and the “Increase in hair growth of >+1, number of patients” value (shortened to “Increase … number of patients”) ([1]; oral or sublingual, 3 months) was 71. For the same molecule, the “Mean score on 7-point assessment scale” value ([1]; oral or sublingual, 3 months) was 0.84 and 0.8, the “Patients who achieved +3 (complete response, CR)” value ([1]; oral or sublingual, 3 months) was 12% and the “Median score on 7-point assessment scale” value ([1]; oral or sublingual, 3 months (IQR 0 to +2)) was “+1 (25-49% hair loss)”. The “Mean score on 7-point assessment scale” value ([1]; oral or sublingual, 6 months) was 1.1, the “Mean score on 7-point assessment scale” value ([1]; oral or sublingual, 9 months) was 1.1 and the “Increase … % of patients” value ([1]; oral or sublingual, 12 months) was 78%. The “Increase … number of patients” value ([1]; oral or sublingual, 12 months) was 43, the “Mean score on 7-point assessment scale” value ([1]; oral or sublingual, 12 months) was 1.66 and 1.6 and the “Patients who achieved +3 (complete response, CR)” value ([1]; oral or sublingual, 12 months) was 40%. For the same molecule, the “Median score on 7-point assessment scale” value ([1]; oral or sublingual, 12 months (IQR +1 to +3)) was “+2 (1-24% hair loss)”, the “Mean score on 7-point assessment scale” value ([1]; oral or sublingual, 15 months) was 1.9 and the “Increase … % of patients” value ([1]; oral or sublingual, 18 months) was 90%. The “Increase … number of patients” value ([1]; oral or sublingual, 18 months) was 9, the “Mean score on 7-point assessment scale” value ([1]; oral or sublingual, 18 months) was 2.33 and 2.4 and the “Patients who achieved +3 (complete response, CR)” value ([1]; oral or sublingual, 18 months) was 80%. The “Median score on 7-point assessment scale” value ([1]; oral or sublingual, 18 months (IQR +3 to +3)) was “+3 (No hair loss (SALT 0))”, the “Early responders (>+1 score by 3 months of treatment), % of patients” value ([1]; oral or sublingual, n = 127) was 53% and the “Early responders (>+1 score by 3 months of treatment), number of patients” value ([1]; oral or sublingual, n = 127) was “Sixty-seven”. For the same molecule, the “Late responders (>+1 score after 6 months of treatment), % of patients” value ([1]; oral or sublingual, n = 127) was 24%, the “Late responders (>+1 score after 6 months of treatment), number of patients” value ([1]; oral or sublingual, n = 127) was “Thirty-one” and the “Primary treatment failure (failed to respond), number of patients” value ([1]; oral or sublingual, n = 127) was “Twenty-four”. The “Primary treatment failure, % of patients” value ([1]; oral or sublingual, n = 127) was 19%, the “Relapse (at least one grade deterioration in score), number of patients” value ([1]; oral or sublingual, n = 127) was “Twenty-eight” and the “Relapse, % of patients” value ([1]; oral or sublingual, n = 127) was 22%. The “Primary treatment failure (failed to respond), number of patients” value [1, 5] was 24, the “Relapse (at least one grade deterioration in score), number of patients” value [1, 5] was 28 and the “Score +1, number of patients” value [1, 6] was 7. For the same molecule, the “Score +2, number of patients” value [1, 6] was 8, the “Score +3, % of patients” value [1, 6] was 18% and the “Score +3, number of patients” value [1, 6] was 7. For the same molecule, the “Total non-responders, % of patients” value [1, 6] was 44%, the “Total non-responders, number of patients” value [1, 6] was 17 and the “Total responders, % of patients” value [1, 6] was 56%. For the same molecule, the “Total responders, number of patients” value [1, 6] was 22, the “Score +1, number of patients” value [1, 7] was 4 and the “Score +2, number of patients” value [1, 7] was 7. For the same molecule, the “Score +3, % of patients” value [1, 7] was 27%, the “Score +3, number of patients” value [1, 7] was 10 and the “Total non-responders, % of patients” value [1, 7] was 42%. The “Total non-responders, number of patients” value [1, 7] was 15, the “Total responders, % of patients” value [1, 7] was 58% and the “Total responders, number of patients” value [1, 7] was 21. The “Score +1, number of patients” value [1, 8] was 3, the “Score +2, number of patients” value [1, 8] was 4 and the “Score +3, % of patients” value [1, 8] was 48%. For the same molecule, the “Score +3, number of patients” value [1, 8] was 12, the “Total non-responders, % of patients” value [1, 8] was 24% and the “Total non-responders, number of patients” value [1, 8] was 6. The “Total responders, % of patients” value [1, 8] was 76%, the “Total responders, number of patients” value [1, 8] was 19 and the “Score +1, number of patients” value [1, 9] was 1. The “Score +2, number of patients” value [1, 9] was 5, the “Score +3, % of patients” value [1, 9] was 52% and the “Score +3, number of patients” value [1, 9] was 11. The “Total non-responders, % of patients” value [1, 9] was 19%, the “Total non-responders, number of patients” value [1, 9] was 4 and the “Total responders, % of patients” value [1, 9] was 81%. For the same molecule, the “Total responders, number of patients” value [1, 9] was 17, the “Score +1, number of patients” value [1, 10] was 1 and the “Score +2, number of patients” value [1, 10] was 2. For the same molecule, the “Score +3, % of patients” value [1, 10] was 56%, the “Score +3, number of patients” value [1, 10] was 9 and the “Total non-responders, % of patients” value [1, 10] was 25%. The “Total non-responders, number of patients” value [1, 10] was 4, the “Total responders, % of patients” value [1, 10] was 75% and the “Total responders, number of patients” value [1, 10] was 12. For the same molecule, the “Score +1, number of patients” value [1, 11] was 0, the “Score +2, number of patients” value [1, 11] was 1 and the “Score +3, % of patients” value [1, 11] was 71%. The “Score +3, number of patients” value [1, 11] was 5, the “Total non-responders, % of patients” value [1, 11] was 14% and the “Total non-responders, number of patients” value [1, 11] was 1. For the same molecule, the “Total responders, % of patients” value [1, 11] was 86%, the “Total responders, number of patients” value [1, 11] was 6 and the “Secondary treatment failure, number of patients” value ([1]; out of 28 who experienced a relapse while on treatment) was “Five”. For the same molecule, the “Patients who achieved a CR, %” value ([1]; patients with AT/AU) was 37%, the “Patients who achieved a CR, number” value ([1]; patients with AT/AU) was 13 and the “Patients who achieved a response, %” value ([1]; patients with AT/AU) was 71%. The “Patients who achieved a response, number” value ([1]; patients with AT/AU) was 25, the “Early responders, number of patients” value [1, 12] was 21 and the “Late responders, number of patients” value [1, 12] was 10. For the same molecule, the “Never responded, number of patients” value [1, 12] was 6, the “Patients who had regrowth” value [1, 12] was 81.6% and the “Relapsed, number of patients” value [1, 12] was 2. For the same molecule, the “Score +1, number of patients” value [1, 13] was 21, the “Score +2, number of patients” value [1, 13] was 20 and the “Score +3, % of patients” value [1, 13] was 9%. The “Score +3, number of patients” value [1, 13] was 8, the “Total non-responders, % of patients” value [1, 13] was 46.5% and the “Total non-responders, number of patients” value [1, 13] was 41. The “Total responders, % of patients” value [1, 13] was 53%, the “Total responders, number of patients” value [1, 13] was 49 and the “Score +1, number of patients” value [1, 14] was 18. For the same molecule, the “Score +2, number of patients” value [1, 14] was 17, the “Score +3, % of patients” value [1, 14] was 20% and the “Score +3, number of patients” value [1, 14] was 15. For the same molecule, the “Total non-responders, % of patients” value [1, 14] was 32%, the “Total non-responders, number of patients” value [1, 14] was 24 and the “Total responders, % of patients” value [1, 14] was 68%. The “Total responders, number of patients” value [1, 14] was 50, the “Score +1, number of patients” value [1, 15] was 13 and the “Score +2, number of patients” value [1, 15] was 12. The “Score +3, % of patients” value [1, 15] was 26%, the “Score +3, number of patients” value [1, 15] was 14 and the “Total non-responders, % of patients” value [1, 15] was 26%. The “Total non-responders, number of patients” value [1, 15] was 14, the “Total responders, % of patients” value [1, 15] was 74% and the “Total responders, number of patients” value [1, 15] was 39. For the same molecule, the “Score +1, number of patients” value [1, 16] was 8, the “Score +2, number of patients” value [1, 16] was 11 and the “Score +3, % of patients” value [1, 16] was 32%. For the same molecule, the “Score +3, number of patients” value [1, 16] was 11, the “Total non-responders, % of patients” value [1, 16] was 15% and the “Total non-responders, number of patients” value [1, 16] was 5. The “Total responders, % of patients” value [1, 16] was 85%, the “Total responders, number of patients” value [1, 16] was 29 and the “Score +1, number of patients” value [1, 17] was 3. For the same molecule, the “Score +2, number of patients” value [1, 17] was 5, the “Score +3, % of patients” value [1, 17] was 40% and the “Score +3, number of patients” value [1, 17] was 6. The “Total non-responders, % of patients” value [1, 17] was 7%, the “Total non-responders, number of patients” value [1, 17] was 1 and the “Total responders, % of patients” value [1, 17] was 93%. The “Total responders, number of patients” value [1, 17] was 14, the “Score +1, number of patients” value [1, 18] was 0 and the “Score +2, number of patients” value [1, 18] was 0. The “Score +3, % of patients” value [1, 18] was 100%, the “Score +3, number of patients” value [1, 18] was 3 and the “Total non-responders, number of patients” value [1, 18] was 0. For the same molecule, the “Total responders, % of patients” value [1, 18] was 100%, the “Total responders, number of patients” value [1, 18] was 3 and the “Early responders, % of patients” value [1, 19] was 51.7%. The “Early responders, number of patients” value [1, 19] was “Twenty-nine”, the “Late responders, % of patients” value [1, 19] was 19.6% and the “Late responders, number of patients” value [1, 19] was 11. For the same molecule, the “Patients who achieved a CR” value [1, 19] was “Eighteen”, the “Primary failures, % of patients” value [1, 19] was 26.7% and the “Primary failures, number of patients” value [1, 19] was 15. For the same molecule, the “Secondary failure, number of patients” value [1, 19] was 1 and the “Usefulness for treatment of folliculitis decalvans and tufted folliculitis” value [2] was “useful”.
